Test [1] addresses T1, Tubulin (Homo sapiens) (UniProt P68371+Q9H4B7+P0DPH7+P68366+Q13509+Q71U36+P04350+Q3ZCM7+P07437+P68363+Q9BQE3+Q6PEY2+Q13885+Q9BVA1+Q9BUF5). Nature of the test: Inhibition of tubulin polymerization in human MOLM-13 cells assessed as disruption of microtubule network at 200 nM after 18 hrs by FITC-staining based flow cytometry analysis. The test is classed as cell-based.
For test [2], the target named is T1, Tubulin (Homo sapiens). Nature of the test: Inhibition of tubulin polymerization in human MOLM-13 cells assessed as disruption of microtubule network at 100 nM after 18 hrs by FITC-staining based flow cytometry analysis. The test is classed as cell-based. A general note: A flow cytometer gives signals particle by particle.
Another test relates to HL-60. Put plainly: Cytotoxicity against human HL-60 cells assessed as reduction in cell viability after 48 hrs by MTT assay. The test is classed as functional, cell-based. The following applies: HL-60, 48 h.
A short description of test [3]: Cytotoxicity against human HL60/VCR cells assessed as reduction in cell viability after 48 hrs by MTT assay. The class given is functional, cell-based. In general terms: Tetrazolium assays rely on reduction of a dye to a coloured formazan, in cell work by metabolically active cells.
A further test concerns the target Sphingosine kinase 1 (Homo sapiens, UniProt Q9NYA1). Nature of the test: Inhibition of recombinant His6x-tagged human SphK1 expressed in HEK293 cells assessed as reduction in S1P formation using D-erythro-sphingosine as substrate by […].
For test [4], the target named is T2, Sphingosine kinase 1/2 (Homo sapiens) (UniProt Q9NRA0+Q9NYA1). Nature of the test: Inhibition of SPHK1/SPHK2 in human HL-60 cells assessed as sphingosine level assessed per 10^6 cells at 5 uM after 24 hrs by LC-ESI/MS analysis (reference value: 18.3 +/- 3.5 pmol). The test is classed as cell-based.
T2 sequence (Q9NRA0 whole entry, looked up): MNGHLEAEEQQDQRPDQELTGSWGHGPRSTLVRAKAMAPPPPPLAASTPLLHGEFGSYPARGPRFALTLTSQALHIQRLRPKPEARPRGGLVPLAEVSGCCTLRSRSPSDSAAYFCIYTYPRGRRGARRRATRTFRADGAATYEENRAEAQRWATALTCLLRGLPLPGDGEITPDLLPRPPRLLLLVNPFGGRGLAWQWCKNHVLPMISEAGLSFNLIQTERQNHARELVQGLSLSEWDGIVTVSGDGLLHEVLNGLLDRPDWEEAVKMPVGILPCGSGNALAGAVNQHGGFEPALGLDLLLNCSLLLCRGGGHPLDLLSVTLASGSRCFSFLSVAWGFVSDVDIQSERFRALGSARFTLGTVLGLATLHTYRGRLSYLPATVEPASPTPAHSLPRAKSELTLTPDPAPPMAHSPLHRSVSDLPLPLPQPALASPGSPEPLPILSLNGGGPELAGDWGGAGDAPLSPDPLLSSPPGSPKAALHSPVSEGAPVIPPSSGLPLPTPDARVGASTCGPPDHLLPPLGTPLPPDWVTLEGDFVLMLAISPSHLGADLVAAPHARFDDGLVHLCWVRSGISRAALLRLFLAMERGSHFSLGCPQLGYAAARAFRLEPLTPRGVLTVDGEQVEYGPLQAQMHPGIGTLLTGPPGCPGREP
T2 sequence (Q9NYA1 whole entry, looked up): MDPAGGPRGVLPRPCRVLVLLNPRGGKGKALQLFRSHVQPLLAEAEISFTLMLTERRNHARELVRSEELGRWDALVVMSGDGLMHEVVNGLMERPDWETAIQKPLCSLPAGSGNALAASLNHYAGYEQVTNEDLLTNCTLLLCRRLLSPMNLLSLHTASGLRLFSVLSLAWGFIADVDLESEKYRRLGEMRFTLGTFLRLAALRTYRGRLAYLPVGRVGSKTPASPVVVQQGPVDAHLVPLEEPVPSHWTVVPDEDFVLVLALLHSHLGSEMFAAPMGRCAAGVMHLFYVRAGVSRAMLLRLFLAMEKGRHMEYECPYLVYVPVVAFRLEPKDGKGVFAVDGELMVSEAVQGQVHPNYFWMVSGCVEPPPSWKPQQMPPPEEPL
The target of test [5] is T2, Sphingosine kinase 1/2 (Homo sapiens). Put plainly: Inhibition of SPHK1/SPHK2 in human HL-60 cells assessed as sphingosine-1-phosphate level assessed per 10^6 cells at 5 uM after 24 hrs by LC-ESI/MS analysis (reference value: 3.1 +/- 0.3 pmol). The test is classed as cell-based.
For test [6] the target is unchanged. Nature of the test: Inhibition of SPHK1/SPHK2 in human HL-60 cells assessed as C16:0 ceramide level assessed per 10^6 cells at 5 uM after 24 hrs by LC-ESI/MS analysis (reference value: 33.5 +/- 4.1 pmol). The test is classed as cell-based.
Test [7] shares this target. Put plainly: Inhibition of SPHK1/SPHK2 in human HL-60 cells assessed as C18:0 ceramide level assessed per 10^6 cells at 5 uM after 24 hrs by LC-ESI/MS analysis (reference value: 1.6 +/- 0.2 pmol). The test is classed as cell-based.
Test [8] addresses Cyclin-dependent kinase 1 (Homo sapiens) (UniProt P06493). Put plainly: Activation of CDK1 in human HL60/VCR cells assessed as induction of Bcl2 phosphorylation at Ser70 residue at 5 uM after 24 hrs in presence of Ro-3306 by Western blot analysis. The test is classed as cell-based. A general note: In western blotting, separated proteins are transferred to a membrane and probed.

Test [9] shares this target. Put plainly: Activation of CDK1 in human HL60/VCR cells assessed as activation of caspase 7 at 5 uM after 24 hrs in presence of Ro-3306 by Western blot analysis. The class given is cell-based.
The target is the same in test [10]. Put plainly: Activation of CDK1 in human HL-60 cells assessed as induction of Bcl2 phosphorylation at Ser70 residue at 5 uM after 24 hrs in presence of Ro-3306 by Western blot analysis. The test is classed as cell-based.
Test [11] shares this target. Nature of the test: Activation of CDK1 in human HL-60 cells assessed as activation of caspase 7 at 5 uM after 24 hrs in presence of Ro-3306 by Western blot analysis. The test is classed as cell-based.
In test [12] the target is T2, Sphingosine kinase 1/2 (Homo sapiens). Put plainly: Inhibition of SPHK1/SPHK2 in human HL-60 cells assessed as induction of apoptosis by measuring spindle assembly checkpoint arrest at 3 nM after 16 hrs by Western blot analysis. The test is classed as cell-based.
For test [13] the target is unchanged. Nature of the test: Inhibition of SPHK1/SPHK2 in human HL-60 cells assessed as induction of apoptosis by measuring spindle assembly checkpoint arrest at 20 nM after 16 hrs by Western blot analysis. The test is classed as cell-based.

The record followed here is ChEMBL document CHEMBL4665719, “Development of SKI-349, a dual-targeted inhibitor of sphingosine kinase and microtubule polymerization” (Bioorg Med Chem Lett, 2020).

By pIC50 is commonly meant −log10 of the IC50, conventionally taken in molar units.

pIC50: −log10 of the molar value. Calls of active or inactive are those of the source. The calls are words filed in the database; no cut-off is given here.

Cyclin-dependent kinase 1 (Homo sapiens), sequence (P06493 whole entry, looked up): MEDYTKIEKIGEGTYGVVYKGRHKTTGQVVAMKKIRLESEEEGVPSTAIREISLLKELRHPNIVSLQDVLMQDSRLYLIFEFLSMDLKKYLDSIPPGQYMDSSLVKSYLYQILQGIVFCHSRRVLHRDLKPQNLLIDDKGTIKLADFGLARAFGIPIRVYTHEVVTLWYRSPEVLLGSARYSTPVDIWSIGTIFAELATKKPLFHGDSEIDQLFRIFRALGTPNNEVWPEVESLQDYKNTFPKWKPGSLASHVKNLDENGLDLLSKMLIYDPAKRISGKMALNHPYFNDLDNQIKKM
Sphingosine kinase 1, sequence (Q9NYA1 whole entry): as the sequence (Q9NYA1 whole entry, looked up) above

On to `CC[C@]1(O)C[C@H]2CN(CCc3c([nH]c4ccccc34)[C@@](C(=O)OC)(c3cc4c(cc3OC)N(C=O)[C@H]3[C@@](O)(C(=O)OC)[C@H](OC(C)=O)[C@]5(CC)C=CCN6CC[C@]43[C@@H]65)C2)C1`, for which the inhibition entry at Tubulin (Homo sapiens) [1] is “Active”.

For the compound `CC(=O)O[C@H]1C(=O)[C@@]2(C)[C@H]([C@H](OC(=O)c3ccccc3)[C@]3(O)C[C@H](OC(=O)[C@H](O)[C@@H](NC(=O)c4ccccc4)c4ccccc4)C(C)=C1C3(C)C)[C@]1(OC(C)=O)CO[C@@H]1C[C@@H]2O`, on Tubulin (Homo sapiens) [2], the inhibition result is “Active”.

For `COc1ccc(-c2cc(C(=O)N/N=C(\C)c3ccc(OC)c(OC)c3)[nH]n2)cc1`, the pIC50 in the test with HL-60 is 6.33; in test [3], 5.96; on Sphingosine kinase 1, 5.52. Moreover, the Activity in test [4] was determined as 28.7 pmol; in test [5] it was 3.2 pmol; in test [6], 84 pmol; in [7] it was 4.8 pmol. Further, the outcome in test [8], in test [9], in [10] and in test [11] was inactive.

For the compound `Cc1ccc(C(=O)N(CCCN)[C@@H](c2nc3cc(Cl)ccc3c(=O)n2Cc2ccccc2)C(C)C)cc1`, the result in test [12] was Active.

On to `CC[C@@H]1C(=O)N(C)c2cnc(Nc3ccc(C(=O)N[C@H]4CC[C@H](N5CCN(CC6CC6)CC5)CC4)cc3OC)nc2N1C(C)C`, for which, in test [13], the outcome was Active.
